Experimental findings from ChEMBL document CHEMBL5608210 (Eur J Med Chem, 2024) are described below.

Data set [1] has as its target T1, Fatty acid-binding protein, liver (Homo sapiens, UniProt P07148).
T1 sequence (P07148 whole entry): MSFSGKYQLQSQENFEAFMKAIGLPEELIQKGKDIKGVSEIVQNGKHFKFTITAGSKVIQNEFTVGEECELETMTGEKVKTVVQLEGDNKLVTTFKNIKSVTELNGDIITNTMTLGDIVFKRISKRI
Kind of data set: Inhibition of human FABP1 incubated for 3 mins by fluorescence based analysis.

The target of data set [2] is T2, Fatty acid-binding protein, liver (Homo sapiens) (UniProt P07148).
T2 sequence (whole entry): T1 sequence (P07148 whole entry)
Kind of data set: Inhibition of human FABP1 at 9 uM incubated for 3 mins by fluorescence based analysis relative to control.

The subject of data set [3] is Mus musculus. Kind of data set: Anti-NAFLD activity in high-fat diet induced obese male C57BL/6 mouse model assessed as improvement in oral glucose tolerance at 20 mg/kg, po administered everyday for 4 weeks by oral glucose tolerance test. In kind it is functional, organism-based.
The test system of data set [4] is Mus musculus. Kind of data set: Anti-NAFLD activity in high-fat diet induced obese male C57BL/6 mouse model assessed as reduction in AUC (0 to 90 mins) at 20 mg/kg, po administered everyday for 4 weeks by oral glucose tolerance test. In kind it is functional, organism-based.
Data set [5] can be described thus: Toxicity in high-fat diet induced obese male C57BL/6 mouse model assessed as effect on UA level in serum at 20 mg/kg/day, po measured after 4 weeks by automatic biochemical analyzer. In kind it is organism-based. To be noted: in vivo, 672 h.
Data set [6] deals with Mus musculus. Kind of data set: Hepatoprotective activity in high-fat diet induced obese male C57BL/6 mouse model assessed reduction in inflammatory cell infiltration at 20 mg/kg, po administered everyday for 4 weeks by H and E staining based analysis. In kind it is functional, organism-based.
The test system of data set [7] is Mus musculus. Kind of data set: Hepatoprotective activity in high-fat diet induced obese male C57BL/6 mouse model assessed as decrease in IL-6 level in liver at 20 mg/kg/day, po measured after 4 weeks by ELISA method. Format: functional, organism-based. In general terms: In an ELISA, binding on a coated surface is turned into a signal by an enzyme label.
Data set [8] is described as follows: Toxicity in high-fat diet induced obese male C57BL/6 mouse model assessed as effect on ALP level in serum at 20 mg/kg/day, po measured after 4 weeks by automatic biochemical analyzer. In kind it is organism-based. The settings on record: in vivo, 672 h.
Data set [9] deals with Fatty acid-binding protein, adipocyte (Homo sapiens, UniProt P15090). Kind of data set: Inhibition of FABP4 (unknown origin) incubated for 3 mins by fluorescence based analysis.
Chain of Fatty acid-binding protein, adipocyte (P15090 whole entry): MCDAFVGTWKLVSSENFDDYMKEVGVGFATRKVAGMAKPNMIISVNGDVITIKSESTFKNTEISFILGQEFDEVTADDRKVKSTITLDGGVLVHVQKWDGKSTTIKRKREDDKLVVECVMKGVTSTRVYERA
For data set [10], the system named is Mus musculus. Put plainly: Hepatoprotective activity in high-fat diet induced obese male C57BL/6 mouse model assessed as decrease in IL-1 beta level in liver at 20 mg/kg/day, po measured after 4 weeks by ELISA method. Format: functional, organism-based.
In data set [11] the test system is Mus musculus. Put plainly: Hepatoprotective activity in high-fat diet induced obese male C57BL/6 mouse model assessed as reduction in TC level in serum at 20 mg/kg/day, po measured after 4 weeks by automatic biochemical analyzer. Format: functional, organism-based.
For data set [12], the system named is Mus musculus. Kind of data set: Hepatoprotective activity in high-fat diet induced obese male C57BL/6 mouse model assessed as decrease in TNF-alpha level in liver at 20 mg/kg/day, po measured after 4 weeks by ELISA method. In kind it is functional, organism-based.
Data set [13] concerns Mus musculus. Kind of data set: Hepatoprotective activity in high-fat diet induced obese male C57BL/6 mouse model assessed as reduction in TG level in serum at 20 mg/kg/day, po measured after 4 weeks by automatic biochemical analyzer. Format: functional, organism-based.
Data set [14] in a line: Toxicity in high-fat diet induced obese male C57BL/6 mouse model assessed as effect on TBA level in serum at 20 mg/kg/day, po measured after 4 weeks by automatic biochemical analyzer. Format: organism-based. The settings on record: in vivo, 672 h.
The test system of data set [15] is Mus musculus. Put plainly: Hepatoprotective activity in high-fat diet induced obese male C57BL/6 mouse model assessed as decrease in MCP-1 level in liver at 20 mg/kg/day, po measured after 4 weeks by ELISA method. Format: functional, organism-based.
Data set [16] is described as follows: Toxicity in high-fat diet induced obese male C57BL/6 mouse model assessed as effect on TBIL level in serum at 20 mg/kg/day, po measured after 4 weeks by automatic biochemical analyzer. Format: organism-based. To be noted: in vivo, 672 h.
The test system of data set [17] is Mus musculus. Put plainly: Hepatoprotective activity in high-fat diet induced obese male C57BL/6 mouse model assessed as reduction in LDL-C level in serum at 20 mg/kg/day, po measured after 4 weeks by automatic biochemical analyzer. Format: functional, organism-based.
Data set [18] deals with Mus musculus. Put plainly: Hepatoprotective activity in high-fat diet induced obese male C57BL/6 mouse model assessed reduction in hepatocyte steatosis at 20 mg/kg, po administered everyday for 4 weeks by H and E staining based analysis. Format: functional, organism-based.
Data set [19] in a line: Toxicity in high-fat diet induced obese male C57BL/6 mouse model assessed as effect on ALT level in serum at 20 mg/kg/day, po measured after 4 weeks by automatic biochemical analyzer. To be noted: in vivo, 672 h. Format: organism-based.
Data set [20] is described as follows: Toxicity in high-fat diet induced obese male C57BL/6 mouse model assessed as effect on AST level in serum at 20 mg/kg/day, po measured after 4 weeks by automatic biochemical analyzer. Format: organism-based. The settings on record: in vivo, 672 h.

Molecules are shown by their SMILES. The source made the active and inactive calls. The rule behind the calls is not given here.

A word on the IC50: it is the concentration needed to halve the response being measured. In general, inhibition refers to the drop in the measured response relative to a control, in per cent. High values mean a response far below the control, low ones a response near the control. Compound `N#Cc1ccc(-c2ccccc2S(=O)(=O)N2CCN(S(=O)(=O)c3cccc4cccnc34)CC2)cc1` came in with an IC50 in data set [1] of 2.66 µM. The compound also registered an inhibition in data set [2] of 61.2%.

For `O=C(O)CC(=O)N1CCN(S(=O)(=O)c2cccc3cccnc23)CC1`, the inhibition in data set [2] turned out to be 26.2%. For the compound `O=S(=O)(c1ccccc1-c1cccc(O)c1)N1CCN(S(=O)(=O)c2cccc3cccnc23)CC1`, the outcome in the data set on Mus musculus [3], in the data set with Mus musculus [4], in the data set with Mus musculus [6], in the data set with Mus musculus [7], in the data set on Mus musculus [10] and in the data set with Mus musculus [11] was Active. In addition, the outcome with Mus musculus [12], in the data set with Mus musculus [13], in the data set on Mus musculus [15], in the data set with Mus musculus [17] and with Mus musculus [18] was Active. Moreover, the Activity result in [5], in [8], in [14], in [16], in [19] and in data set [20] was “Non-Toxic” throughout. Also, the IC50 in data set [9] is > 80 µM; in [1], 1.18 µM. The compound further showed an inhibition in data set [2] of 78.1%.

Compound `O=C(O)c1ccc(-c2ccccc2S(=O)(=O)N2CCN(S(=O)(=O)c3cccc4cccnc34)CC2)cc1` registered an IC50 in data set [1] of 2.11 µM. Moreover, the inhibition in [2] turned out to be 68.3%. Compound `O=C(O)c1ccc(NS(=O)(=O)c2cccc3cccnc23)cc1` displayed an inhibition in data set [2] of 1.28%.

Consider `CC1CN(S(=O)(=O)c2cccc3cccnc23)CCN1C(=O)CC(=O)O` (stereo not given), for which, in data set [2], the inhibition amounted to 20.3%. The compound `O=C(O)CC(=O)N1CCN(C(=O)c2ccc(NS(=O)(=O)c3cccc4cccnc34)cc2)CC1` registered an inhibition in data set [2] of 23.8%. On the same count and under the same terms, the same measure for `O=C(O)CNC(=O)CNS(=O)(=O)c1cccc2cccnc12`: 10.1%. Turning to `O=C(O)CCCCCCCOc1cccc(NS(=O)(=O)c2ccc(-c3ccccc3)cc2)c1`, the 50% inhibitory concentration (IC50) in [1] was 3.24 µM. Also, the inhibition in [2] was 73.5%. In data set [2], `O=C(O)C1CCCN(S(=O)(=O)c2cccc3cccnc23)C1` (stereo not given) displayed an inhibition of 13.7%. On the same count and under the same terms, the same measure for `O=C(O)CC(=O)N1CCN(S(=O)(=O)c2ccc(-c3ccccc3)cc2)CC1`: 13.4%. On the same count and under the same terms, the same measure for `O=C(O)CCNC(=O)c1ccc(NS(=O)(=O)c2cccc3cccnc23)cc1`: 15.3%; for `O=C(O)CNC(=O)c1ccc(NS(=O)(=O)c2cccc3cccnc23)cc1`: 16.1%; for `O=C(O)CNS(=O)(=O)c1cccc2cccnc12`: 4.26%. `O=C(C1CCCN(S(=O)(=O)c2cccc3cccnc23)C1)N1CCNCC1` (stereo not given): in data set [2], the inhibition stood at 11.5%. Compound `O=S(=O)(c1ccc(-c2ccccc2)cc1)N1CCNCC1` had an inhibition in [2] of 0.18%.

Take `O=C(O)CCCCCCCOc1ccc(NS(=O)(=O)c2cccc3cccnc23)cc1`: in [1], the 50% inhibitory concentration (IC50) is 2.44 µM. The inhibition in data set [2] was determined as 72.5%. As for `O=C(O)CCC(NC(=O)N1CCN(S(=O)(=O)c2cccc3cccnc23)CC1)C(=O)O` (stereo not given), in data set [2], the inhibition is 31.6%. The compound `O=C(O)C[C@H](NC(=O)c1ccc(NS(=O)(=O)c2cccc3cccnc23)cc1)C(=O)O` gave an inhibition in data set [2] of 13.1%. Still for that read-out and setting: next, `O=C(O)CC[C@H](NC(=O)c1ccc(NS(=O)(=O)c2cccc3cccnc23)cc1)C(=O)O`: 12.2%.

In data set [2], `O=C(O)CCC(NC(=O)C1CCCN(S(=O)(=O)c2cccc3cccnc23)C1)C(=O)O` (stereo not given) came in with an inhibition of 10.3%. In data set [2], `O=C(O)C1(C(=O)N2CCN(S(=O)(=O)c3cccc4cccnc34)CC2)CC1` gave an inhibition of 30.5%. Still for that read-out and setting: next, `O=C(O)CC(NC(=O)C1CCCN(S(=O)(=O)c2cccc3cccnc23)C1)C(=O)O` (stereo not given): 12.1%. In turn, `O=S(=O)(c1ccccc1-c1ccc(F)cc1)N1CCN(S(=O)(=O)c2cccc3cccnc23)CC1` returned a half-inhibitory concentration (IC50) in data set [1] of 5.66 µM. In data set [2], this compound returned an inhibition of 52.7%. On the same counts, the results for `O=C(O)CCCCCCCOc1cccc(NS(=O)(=O)c2cccc3cccnc23)c1` are 3.02 µM and 69.3%. In data set [2], `O=C(O)CNC(=O)CNC(=O)c1ccc(NS(=O)(=O)c2cccc3cccnc23)cc1` had an inhibition of 11.9%. On the same count and under the same terms, the same measure for `CSCCC(NS(=O)(=O)c1cccc2cccnc12)C(=O)O` (stereo not given): 20.9%; for `O=C(O)c1cccc(NS(=O)(=O)c2cccc3cccnc23)c1`: 8.28%. The same measure, in the same setting: next, `O=C(O)C1(C(=O)N2CCN(S(=O)(=O)c3ccc(-c4ccccc4)cc3)CC2)CC1`: 21.1%; `O=C(c1ccc(NS(=O)(=O)c2cccc3cccnc23)cc1)N1CCN(C(=O)C2(C(=O)O)CC2)CC1`: 29.9%. In turn, `CCc1c(-c2ccccc2)c(-c2ccccc2)nn1-c1ccccc1-c1cccc(OCC(=O)O)c1` came in with a concentration for half-maximal inhibition (IC50) in [1] of 2.71 µM.

In the case of `O=C(O)C1(c2cccc(-c3ccc(OCc4c(-c5c(Cl)cccc5Cl)noc4C4CC4)cc3)c2)CC1`, the IC50 in data set [9] was 6.2 µM. Regarding `O=C(O)CCNS(=O)(=O)c1cccc2cccnc12`, the inhibition in [2] was determined as 3.47%. For the compound `Cc1cc(F)ccc1-c1ccccc1S(=O)(=O)N1CCN(S(=O)(=O)c2cccc3cccnc23)CC1`, in data set [1], the 50% inhibitory concentration (IC50) stood at 6.11 µM. This compound also came in with an inhibition in data set [2] of 63.8%.
